Among the data in PubChem BioAssay AID1648 (Sanford-Burnham Center for Chemical Genomics, 2009) are Kd values, retold here.

Active and inactive are the calls of the source. How the calls were made is not given here.

For this test, the target named is Serine/threonine-protein kinase mTOR (Homo sapiens) (UniProt P42345). As to the kind of experiment: mTOR FRB domain ligand binding – biophysical, NMR (AID 1648). Conditions: NMR binding to FRB domain, chemical shift.
Serine/threonine-protein kinase mTOR (Homo sapiens), sequence (P42345 2015-2114): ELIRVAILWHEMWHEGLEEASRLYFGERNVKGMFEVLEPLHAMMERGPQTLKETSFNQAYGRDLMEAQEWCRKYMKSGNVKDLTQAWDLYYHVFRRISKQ
Usually Kd stands for the constant that tells how readily two partners part at equilibrium. `COc1ccc2c(=O)c(CC(=O)O)coc2c1`: the Kd is > 4 mM (inactive). On to `O=C(/C=C1\SC(=O)NC1=O)NCc1ccccc1`, for which the Kd was > 4 mM (inactive).

Take `CCCOn1nnnc1-c1ccccc1`: the Kd was > 4 mM (inactive). Under `Cc1occc1C(=O)NCc1ccncc1` stands > 4 mM (inactive); under `CC1=C(C(N)=O)C(c2cccs2)C(C(N)=O)=C(C)N1`, > 4 mM (inactive); under `O=C(O)C1CN(Cc2ccccc2)CCO1` (centres undefined), > 4 mM (inactive). Regarding `CC(C)Nc1ncnc2c1nnn2C`, the Kd is > 4 mM (inactive). Under `O=C1C2CCCCC2C(=O)N1c1nccs1` (centres undefined) stands > 4 mM (inactive). Under `O=C1CN(C(=O)c2ccccc2F)c2ccccc2N1` stands > 4 mM (inactive); under `O=c1sc2ccccc2n1CN1CCOCC1`, > 4 mM (inactive); under `O=C1CC(C(=O)O)c2ccccc21` (centres undefined), > 4 mM (inactive).

For the compound `CC(=O)O[C@H]1C[C@@H](OC(C)=O)C(C)(C)C2C[C@@H](OC(C)=O)[C@]3(C)C(CC[C@@]4(C)[C@H](c5ccoc5)C(=O)[C@H]5O[C@]543)[C@]21C` (some centres undefined), the Kd was > 4 mM (inactive). Under `O=C(NCc1ccccc1Br)c1ccco1` stands > 4 mM (inactive); under `Cc1cc(F)c(F)c(C(=O)NC2CC2)c1Cl`, > 4 mM (inactive); under `OCc1ncoc1-c1ccccc1`, > 4 mM (inactive).

As to `CN(C)N1C(=O)c2ccccc2C1=O`, the Kd is > 4 mM (inactive). Under `Cn1cnnc1SCC(=O)Nc1nccs1` stands > 4 mM (inactive); under `Cc1n[nH]c(C)c1CC(=O)O`, > 4 mM (inactive); under `COC(=O)c1ccccc1C`, > 4 mM (inactive).

Regarding `CCc1ccccc1OCc1nnc(N)s1`, the Kd was > 4 mM (inactive).

Turning to `O=c1[nH]c(CN2CCN(CCO)CC2)nc2ccccc12`, the Kd was > 4 mM (inactive).

In the case of `Cn1ncc(C(=O)NC2CCCCC2)c1Cl`, the Kd is > 4 mM (inactive). With `CN(C)C(=O)Oc1ccc(-c2nnco2)cc1` the figure was > 4 mM (inactive); with `COC(=O)[C@@]1(C)CCC[C@]2(C)c3ccc(O)c(C(C)C)c3CCC12` (some centres undefined), > 4 mM (inactive). With `OCc1ccc(-n2cccn2)cc1` the figure was > 4 mM (inactive).

For the compound `COc1cc2c(cc1OC)-c1nnnn1C(C)(C)C2`, the Kd was > 4 mM (inactive). `COc1cc(OC)c2ccc(=O)oc2c1`: the Kd was > 4 mM (inactive). Turning to `O=S(=O)(Nc1cccnc1Cl)c1ccccc1`, the Kd is > 4 mM (inactive).

Consider `O=C(O)C1Cc2ccccc2O1` (centres undefined), for which the Kd is > 4 mM (inactive).

For `CN1C(=O)C(Cc2c[nH]c3ccccc23)C(=O)N(C)C1=O`, the Kd is > 4 mM (inactive). Under `O=C1CSC(=Nc2ccc(C(=O)O)cc2)N1` stands > 4 mM (inactive).

For `Cc1n[nH]c(=O)c2ncn(C)c12`, the Kd was > 4 mM (inactive).

As for `C=C1CCC2[C@](C)(CO)[C@H](O)CC[C@@]2(C)[C@@H]1C/C=C1/C(=O)OC[C@H]1O` (some centres undefined), the Kd is > 4 mM (inactive). With `Nc1nc2ncc(=O)[nH]c2c(=O)[nH]1` the figure was > 4 mM (inactive). Under `N#Cc1ccccc1CSc1ccccn1` stands > 4 mM (inactive); under `Cc1nc(-c2ccc(CO)s2)cs1`, > 4 mM (inactive). With `Cc1cc(C)c2ccc[n+]([O-])c2c1O` the figure was > 4 mM (inactive); with `CC(=O)O[C@H]1C[C@@H](OC(C)=O)C(C)(C)C2C[C@@H](OC(C)=O)[C@]3(C)C(CC[C@@]4(C)[C@H](c5ccoc5)OC(=O)[C@H]5O[C@]543)[C@]21C` (some centres undefined), > 4 mM (inactive). In the case of `Cc1cccc(C)c1NC(=O)/C=C/C(=O)O`, the Kd is > 4 mM (inactive). `CNc1nc(SC)nc(N2CCOCC2)n1`: the Kd was > 4 mM (inactive). Under `C/C(=N\NC(N)=S)C(=O)O` stands > 4 mM (inactive); under `COc1c2ccoc2nc2c(OC)c(OCC(O)C(C)(C)O)ccc12` (centres undefined), > 4 mM (inactive); under `Nc1ccncc1`, > 4 mM (inactive). Consider `O=C(CSc1cccc2cccnc12)N1CCCC1`, for which the Kd was > 4 mM (inactive). Consider `O=C1CC(NCc2ccco2)C(=O)NN1` (centres undefined), for which the Kd was > 4 mM (inactive).

With `CC(CC(=O)NN)C1(O)CCCCC1` (centres undefined), the Kd is > 4 mM (inactive).

On to `Cc1cc(=O)c2ccccc2n1CC(N)=O`, for which the Kd is > 4 mM (inactive). Under `NCCNC(=S)Nc1ccccc1` stands > 4 mM (inactive).

For `CC1CCN(C(=S)c2ccccc2O)CC1`, the Kd was > 4 mM (inactive). Under `Cc1cc(C)n(CC(=O)NC2CCCCC2)n1` stands > 4 mM (inactive); under `CCOc1ccc(C)cc1S(=O)(=O)n1ccnc1`, > 4 mM (inactive); under `CCOCC(=O)N1CCc2ccccc21`, > 4 mM (inactive). Under `O=C1CNC(=O)/C1=C/c1ccc(O)cc1` stands > 4 mM (inactive); under `Nc1ccc2c(c1)CCC2=O`, > 4 mM (inactive). With `COc1cccc(NC(=O)c2ncn[nH]2)c1` the figure was > 4 mM (inactive). Consider `CC1(C)CCC(C)(C)c2cc(C(=O)O)ccc21`, for which the Kd was > 4 mM (inactive). With `OCc1cccs1` the figure was > 4 mM (inactive).

Turning to `COc1nc(N2CCOCC2)nc(N)c1[N+](=O)[O-]`, the Kd is > 4 mM (inactive). Turning to `COc1cc([C@H]2Oc3cc([C@H]4Oc5cc(O)cc(O)c5C(=O)[C@@H]4O)ccc3O[C@@H]2CO)ccc1O`, the Kd is > 4 mM (inactive).

On to `O=C(NN1C(=O)CSC1=S)c1ccccc1`, for which the Kd was > 4 mM (inactive). Take `Cc1cc(NC(=O)CCCn2cnc([N+](=O)[O-])n2)no1`: the Kd was > 4 mM (inactive). `O=C(O)C1CSC(c2ccc(Cl)cc2)N1` (centres undefined): the Kd is > 4 mM (inactive).

In the case of `Cn1c(=O)[nH]c(=O)c2c1ncn2CCN1CCCCC1`, the Kd was > 4 mM (inactive). Consider `Cc1cc(Cl)ccc1NC(=O)C(N)=O`, for which the Kd was > 4 mM (inactive). Under `C=CC1=C(C)/C(=C/c2[nH]c(Cc3[nH]c(/C=C4\NC(=O)C(C)=C4C=C)c(C)c3CCC(=O)O)c(CCC(=O)O)c2C)NC1=O` stands > 4 mM (inactive); under `CC(=O)c1ccc(NC(=S)N2CCC(O)CC2)cc1`, > 4 mM (inactive).

For `CN1C(=O)CC(=O)N(C)c2ccccc21`, the Kd is > 4 mM (inactive). `C=CCn1c(=S)[nH]c2ccc(Br)cc2c1=O`: the Kd is > 4 mM (inactive). With `CC1(C)C[C@@H]2C(=O)CC[C@H]3O[C@]3(C)CC[C@H]21` the figure was > 4 mM (inactive); with `Cc1cc(=O)[nH]c(N2CCCCC2)n1`, > 4 mM (inactive).

Regarding `CC(C)C(C)/C=C/C(C)[C@H]1CCC2C3=CCC4CC(=O)CC[C@]4(C)C3CC[C@@]21C` (some centres undefined), the Kd is > 4 mM (inactive).

With `c1ccc(Cc2nnc3sc(-c4ccncc4)nn23)cc1`, the Kd was > 4 mM (inactive). Under `CNc1nc(OC)nc(N2CCOCC2)n1` stands > 4 mM (inactive); under `COc1ccc(-c2cc(=O)c3c(O)cc(O)c(-c4cc(-c5cc(=O)c6c(O)cc(O)cc6o5)ccc4OC)c3o2)cc1`, > 4 mM (inactive).
